{"source": "patent US9334267B2", "about": "“RAF inhibitor compounds” (Deciphera Pharmaceuticals, LLC, priority 2012, dated 2016)", "key": {"[1]": {"tested_on": "phospho-ERK in HCT-116 cells", "test": "HCT-116 cell pERK assay (AlphaScreen SureFire)", "assay_type": "cell-based", "conditions": "B-Raf wild type, K-Ras mutation", "protocol": "Examples of Formula I are tested against HCT-116 cells harboring wild type B-Raf and K-Ras mutation. The phospho-ERK activities are evaluated as described below.\nHCT-116 cells (catalog #CCL-247) are obtained from the American Type Culture Collection (ATCC, Manassas, Va.). Briefly, cells are grown in McCoy's 5A supplemented with 10% characterized fetal bovine serum (Invitrogen, Carlsbad, Calif.), and 1% Penicillin/Streptomycin/L-Glutamine at 37 degrees Celsius, 5% CO2, and 95% humidity. Cells are allowed to expand until reaching 75-90% confluency at which point they are subcultured or harvested for assay use. HCT-116 cells suspended in complete media are added to 384-well tissue culture treated plates (3×10^5 cells/mL; 7,500 cells per well). The cells are incubated overnight at 37 degrees Celsius, 5% CO2, and 95% humidity. Next, test compound or DMSO diluted in complete media is added to the wells (0.25% final DMSO concentration). The plates are then incubated for 4 hours at 37 degrees Celsius, 5% CO2, and 95% humidity. Following compound incubation, the cells are lysed at 4° C. for 20 minutes with shaking. Cell lysates are centrifuged and the supernatant is transferred to a new plate. An aliquot of each lysate is transferred to a white 384-well assay plate. Using the AlphaScreen SureFire pERK kit (Perkin-Elmer, Waltham, Mass.), an acceptor bead mixture is added to each well and incubated for 2 h at room temperature in the dark. A donor bead mixture is then added to each well and incubated for 2 h at room temperature in the dark. Plates are read using a Synergy2 plate reader (Biotek, Winooski, Vt.) in Plate Mode with Timing Control. Read: (F)1: excitation: 680/30 nm, emission: Plug. 2: Excitation: Plug, emission: 570/100 nm. Top mirror 635 nm. Data is analyzed using Prism software (Graphpad, San Diego, Calif.) to calculate IC50 values and Excel software (Microsoft, Redmond, Wash.) to calculate stimulation compared to control."}, "[2]": {"tested_on": "A375res cells"}, "[3]": {"tested_on": "A375res cells", "test": "Proliferation assay in vemurafenib-resistant melanoma cells A375res", "conditions": "72 hour proliferation assay"}}, "note": "Like-named read-outs stand apart in the source and are kept apart here.", "data": [{"smiles": "CCCS(=O)(=O)Nc1ccc(F)c(C(=O)c2c[nH]c3ncc(-c4ccc(Cl)cc4)cc23)c1F", "note": "[vemurafenib, reference compound]", "values": [{"measurement": "concentrations at which the pERK signal is stimulated", "setting": "[1]", "value": "up to 3 uM"}, {"measurement": "IC50 shift A375 to A375res", "setting": "[2]", "value": "more than 57 fold"}]}, {"smiles": "CCCS(=O)(=O)Nc1ccc(F)c(C(=O)c2c[nH]c3ncc(Cl)cc23)c1F", "note": "[PLX4720, reference compound]", "values": [{"measurement": "IC50 shift A375 to A375res", "setting": "[3]", "value": "more than 27 fold"}]}]}
